Assay results as given in patent US8481495B2 (TetraLogic Pharmaceuticals Corporation, priority 2009, dated 2013).

What was measured:
XIAP BIR-3 = biological target: T1, XIAP BIR-3 (Homo sapiens, UniProt P98170); test: Fluorescence polarization binding to XIAP BIR-3 with labeled peptide AbuRPF-K(5-Fam)-NH2; conditions: XIAP BIR-3, 40 nM BIR3, 5 nM labeled peptide, 15 min RT, pH 7.5; read-out: XIAP, nM (binding affinity KD, as range)
T1 construct: 40 nM of the respective IAP BIR3
Procedure: (§1) The binding affinities of the compounds are reported as a KD value (μM). Briefly, various concentrations of test peptides were mixed with 5 nM of the fluorescently labeled peptide (i.e., a mutated N-terminal Smac peptide-AbuRPF-K(5-Fam)-NH2) and 40 nM of the respective IAP BIR3 for 15 min at RT in […] of 0.1M Potassium Phosphate buffer, pH 7.5 containing […] bovine g-globulin. Following incubation, the polarization values (mP) were measured on a Victor2V™ (available from PerkinElmer® Life Sciences) using a 485 nm excitation filter and a 520 nm emission filter. The reported binding affinities (KD values) are supplied as ranges (A=<0.1 μM, B=0.1 μM to 1 μM, C=>1 μM to 10 μM, D=>10 μM).

cIAP-1 BIR-3 = biological target: T2, cIAP-1 BIR-3 (Homo sapiens, UniProt Q13490); test: Fluorescence polarization binding to cIAP-1 BIR-3 with labeled peptide AbuRPF-K(5-Fam)-NH2; conditions: cIAP-1 BIR-3, 40 nM BIR3, 5 nM labeled peptide, 15 min RT, pH 7.5; read-out: cIAP1, nM (binding affinity KD, as range)
T2 construct: 40 nM of the respective IAP BIR3
Procedure: as §1

SK-OV-3 cells = test: MTT cell growth inhibition assay in ovarian cancer cell line SK-OV-3; format: cell-based; conditions: Homo sapiens, 72 hrs incubation, read-out: SKOV3, nM (CC50, concentration giving 50% cell survival, as range)
Procedure: Compounds of the invention also were tested for their ability to inhibit the growth of an ovarian cancer cell line, SK-OV-3. A known assay previously used for measuring cell growth (as described in Hansen, M. B., Nielsen, S. E., and Berg, K. (1989) J. Immunol. Methods 119, 203-210 and incorporated herein by reference in its entirety) was used. Briefly, SK-OV-3 cells are seeded in 96-well plates in McCoy's medium containing 10% fetal bovine serum albumin (5,000 per well) and incubated overnight at 37° C. The next day, test compounds are added at various concentrations (0.003-10 μM) and the plates are incubated at 37° C. for an additional 72 hrs. This incubation time was considered to be optimal for measuring inhibitory effects of the different compounds tested. 50 microliters of 5 mg/mL MTT reagent is added to each well and the plates are incubated at 37° C. for another three (3) hours. At the end of the three (3) hour incubation period, 50 microliters of DMSO is added to each well to dissolve cells and the optical density (OD) of the wells is measured with a microplate reader (Victor^2 1420™, Wallac, Finland) at 535 nm. Cell survival (CS) was calculated using the following equation: CS=(OD treated well/mean OD control wells)×100%.
The CC50 (reported in the following tables), is defined as the drug concentration that results in 50% cell survival (CS), and is derived by calculating the point where the dose-response curve crosses the 50% CS point using GraphPad Prism® graphing software. The reported CC50 values are supplied as ranges (A=<0.1 μM, B=0.1 μM to 1 μM, C=>1 μM to 10 μM, D=>10 μM).

T2 sequence (Q13490 253-363 limits assumed): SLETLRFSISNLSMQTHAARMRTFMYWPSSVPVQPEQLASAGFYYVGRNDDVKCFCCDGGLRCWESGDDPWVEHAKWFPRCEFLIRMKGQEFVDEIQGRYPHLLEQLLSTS
T1 sequence (P98170 241-356 limits assumed): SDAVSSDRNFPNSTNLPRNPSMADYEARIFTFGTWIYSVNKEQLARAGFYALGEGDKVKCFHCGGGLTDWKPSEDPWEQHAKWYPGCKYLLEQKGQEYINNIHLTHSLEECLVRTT

CN[C@@H](C)C(=O)N[C@H](C(=O)N1CC[C@@H]2[C@H]1[C@@H](C(=O)N[C@@H]1CCCc3ccccc31)CN2S(C)(=O)=O)C1CCCCC1 [Example 1, 4-[2-Cyclohexyl-2-(2-methylamino-propionylamino)-acetyl]-1-methanesulfonyl-octahydro-pyrrolo[3,2-b]pyrrole-3-carboxylic acid (1,2,3,4-tetrahydro-naphthalen-1-yl)-amide]
Kd (XIAP BIR-3): < 100 nM | Kd (cIAP-1 BIR-3): < 100 nM | CC50 (SK-OV-3 cells): < 100 nM

CN[C@@H](C)C(=O)N[C@H](C(=O)N1CC[C@@H]2[C@H]1[C@@H](C(=O)NCc1ccccc1)CN2S(C)(=O)=O)C1CCCCC1 [Example 2, 4-[2-Cyclohexyl-2-(2-methylamino-propionylamino)-acetyl]-1-methanesulfonyl-octahydro-pyrrolo[3,2-b]pyrrole-3-carboxylic acid benzylamide]
Kd (XIAP BIR-3): < 100 nM | Kd (cIAP-1 BIR-3): < 100 nM | CC50 (SK-OV-3 cells): < 100 nM

CN[C@@H](C)C(=O)N[C@H](C(=O)N1CC[C@@H]2[C@H]1[C@@H](C(=O)NCc1ccc(F)cc1)CN2S(C)(=O)=O)C1CCCCC1 [Example 3, 4-[2-Cyclohexyl-2-(2-methylamino-propionylamino)-acetyl]-1-methanesulfonyl-octahydro-pyrrolo[3,2-b]pyrrole-3-carboxylic acid 4-fluoro-benzylamide]
Kd (XIAP BIR-3): < 100 nM | Kd (cIAP-1 BIR-3): < 100 nM | CC50 (SK-OV-3 cells): < 100 nM

CN[C@@H](C)C(=O)N[C@H](C(=O)N1CC[C@@H]2[C@H]1[C@@H](C(=O)N[C@H]1CCCc3ccccc31)CN2S(C)(=O)=O)C1CCCCC1 [Example 4, 4-[2-Cyclohexyl-2-(2-methylamino-propionylamino)-acetyl]-1-methanesulfonyl-octahydro-pyrrolo[3,2-b]pyrrole-3-carboxylic acid (1,2,3,4-tetrahydro-naphthalen-1-yl)-amide]
Kd (XIAP BIR-3): < 100 nM | Kd (cIAP-1 BIR-3): < 100 nM | CC50 (SK-OV-3 cells): 100 to 1000 nM

CN[C@@H](C)C(=O)N[C@H](C(=O)N1CC[C@@H]2[C@H]1[C@@H](C(=O)NC1CCCCC1)CN2S(C)(=O)=O)C1CCCCC1 [Example 5, 4-[2-Cyclohexyl-2-(2-methylamino-propionylamino)-acetyl]-1-methanesulfonyl-octahydro-pyrrolo[3,2-b]pyrrole-3-carboxylic acid cyclohexylamide]
Kd (XIAP BIR-3): 1000 to 10000 nM | Kd (cIAP-1 BIR-3): < 100 nM | CC50 (SK-OV-3 cells): 1000 to 10000 nM

CN[C@@H](C)C(=O)N[C@H](C(=O)N1CC[C@@H]2[C@H]1[C@@H](C(=O)NC(c1ccccc1)c1ccccc1)CN2S(C)(=O)=O)C1CCCCC1 [Example 6, 4-[2-Cyclohexyl-2-(2-methylamino-propionylamino)-acetyl]-1-methanesulfonyl-octahydro-pyrrolo[3,2-b]pyrrole-3-carboxylic acid benzhydryl-amide]
Kd (XIAP BIR-3): < 100 nM | Kd (cIAP-1 BIR-3): < 100 nM | CC50 (SK-OV-3 cells): 100 to 1000 nM

CN[C@@H](C)C(=O)N[C@H](C(=O)N1CC[C@@H]2[C@H]1[C@@H](C(=O)N[C@H](C)c1ccccc1)CN2S(C)(=O)=O)C1CCCCC1 [Example 7, 4-[2-Cyclohexyl-2-(2-methylamino-propionylamino)-acetyl]-1-methanesulfonyl-octahydro-pyrrolo[3,2-b]pyrrole-3-carboxylic acid (1-phenyl-ethyl)-amide]
Kd (XIAP BIR-3): 100 to 1000 nM | Kd (cIAP-1 BIR-3): < 100 nM | CC50 (SK-OV-3 cells): 100 to 1000 nM

CN[C@@H](C)C(=O)N[C@H](C(=O)N1CC[C@@H]2[C@H]1[C@@H](C(=O)Nc1ccccc1)CN2S(C)(=O)=O)C1CCCCC1 [Example 8, 4-[2-Cyclohexyl-2-(2-methylamino-propionylamino)-acetyl]-1-methanesulfonyl-octahydro-pyrrolo[3,2-b]pyrrole-3-carboxylic acid phenylamide]
Kd (XIAP BIR-3): 100 to 1000 nM | Kd (cIAP-1 BIR-3): < 100 nM | CC50 (SK-OV-3 cells): < 100 nM

CN[C@@H](C)C(=O)N[C@H](C(=O)N1CC[C@@H]2[C@H]1[C@@H](C(=O)N(C)Cc1ccccc1)CN2S(C)(=O)=O)C1CCCCC1 [Example 9, 4-[2-Cyclohexyl-2-(2-methylamino-propionylamino)-acetyl]-1-methanesulfonyl-octahydro-pyrrolo[3,2-b]pyrrole-3-carboxylic acid benzyl-methyl-amide]
Kd (XIAP BIR-3): < 100 nM | Kd (cIAP-1 BIR-3): < 100 nM | CC50 (SK-OV-3 cells): 100 to 1000 nM

CN[C@@H](C)C(=O)N[C@H](C(=O)N1CC[C@@H]2[C@H]1[C@@H](C(=O)N[C@@H](Cc1ccccc1)C(=O)OC)CN2S(C)(=O)=O)C1CCCCC1 [Example 10, 2-({4-[2-Cyclohexyl-2-(2-methylamino-propionylamino)-acetyl]-1-methanesulfonyl-octahydro-pyrrolo[3,2-b]pyrrole-3-carbonyl}-amino)-3-phenyl-propionic acid methyl ester]
Kd (XIAP BIR-3): 100 to 1000 nM | Kd (cIAP-1 BIR-3): 100 to 1000 nM | CC50 (SK-OV-3 cells): 1000 to 10000 nM

CN[C@@H](C)C(=O)N[C@H](C(=O)N1CC[C@@H]2[C@H]1[C@@H](C(=O)N[C@@H](C)c1ccccc1)CN2S(C)(=O)=O)C1CCCCC1 [Example 11, 4-[2-Cyclohexyl-2-(2-methylamino-propionylamino)-acetyl]-1-methanesulfonyl-octahydro-pyrrolo[3,2-b]pyrrole-3-carboxylic acid (1-phenyl-ethyl)-amide]
Kd (XIAP BIR-3): < 100 nM | Kd (cIAP-1 BIR-3): < 100 nM | CC50 (SK-OV-3 cells): 100 to 1000 nM

CN[C@@H](C)C(=O)N[C@H](C(=O)N1CC[C@@H]2[C@H]1[C@@H](C(=O)N[C@H]1CCc3ccccc31)CN2S(C)(=O)=O)C1CCCCC1 [Example 12, 4-[2-Cyclohexyl-2-(2-methylamino-propionylamino)-acetyl]-1-methanesulfonyl-octahydro-pyrrolo[3,2-b]pyrrole-3-carboxylic acid indan-1-ylamide]
Kd (XIAP BIR-3): 100 to 1000 nM | Kd (cIAP-1 BIR-3): < 100 nM | CC50 (SK-OV-3 cells): 100 to 1000 nM

CN[C@@H](C)C(=O)N[C@H](C(=O)N1CC[C@@H]2[C@H]1[C@@H](C(=O)N1Cc3ccccc3C1)CN2S(C)(=O)=O)C1CCCCC1 [Example 13, N-{1-Cyclohexyl-2-[6-(1,3-dihydro-isoindole-2-carbonyl)-4-methanesulfonyl-hexahydro-pyrrolo[3,2-b]pyrrol-1-yl]-2-oxo-ethyl}-2-methylamino-propionamide]
Kd (XIAP BIR-3): < 100 nM | Kd (cIAP-1 BIR-3): < 100 nM | CC50 (SK-OV-3 cells): < 100 nM

CN[C@@H](C)C(=O)N[C@H](C(=O)N1CC[C@@H]2[C@H]1[C@@H](C(=O)N[C@@H]1CCc3ccccc31)CN2S(C)(=O)=O)C1CCCCC1 [Example 14, 4-[2-Cyclohexyl-2-(2-methylamino-propionylamino)-acetyl]-1-methanesulfonyl-octahydro-pyrrolo[3,2-b]pyrrole-3-carboxylic acid indan-1-ylamide]
Kd (XIAP BIR-3): 100 to 1000 nM | Kd (cIAP-1 BIR-3): < 100 nM | CC50 (SK-OV-3 cells): < 100 nM

CN[C@@H](C)C(=O)N[C@H](C(=O)N1CC[C@@H]2[C@H]1[C@@H](C(=O)N1CCc3ccccc31)CN2S(C)(=O)=O)C1CCCCC1 [Example 15, N-{1-Cyclohexyl-2-[6-(2,3-dihydro-indole-1-carbonyl)-4-methanesulfonyl-hexahydro-pyrrolo[3,2-b]pyrrol-1-yl]-2-oxo-ethyl}-2-methylamino-propionamide]
Kd (XIAP BIR-3): 100 to 1000 nM | Kd (cIAP-1 BIR-3): 100 to 1000 nM | CC50 (SK-OV-3 cells): < 100 nM

CN[C@@H](C)C(=O)N[C@H](C(=O)N1CC[C@@H]2[C@H]1[C@@H](C(=O)NCCc1ccccc1)CN2S(C)(=O)=O)C1CCCCC1 [Example 16, 4-[2-Cyclohexyl-2-(2-methylamino-propionylamino)-acetyl]-1-methanesulfonyl-octahydro-pyrrolo[3,2-b]pyrrole-3-carboxylic acid-phenethyl-amide]
Kd (XIAP BIR-3): < 100 nM | Kd (cIAP-1 BIR-3): < 100 nM | CC50 (SK-OV-3 cells): 100 to 1000 nM

CN[C@@H](C)C(=O)N[C@H](C(=O)N1CC[C@@H]2[C@H]1[C@@H](C(=O)Nc1cccc3ccccc13)CN2S(C)(=O)=O)C1CCCCC1 [Example 17, 4-[2-Cyclohexyl-2-(2-methylamino-propionylamino)-acetyl]-1-methanesulfonyl-octahydro-pyrrolo[3,2-b]pyrrole-3-carboxylic acid naphthalen-1-ylamide]
Kd (XIAP BIR-3): < 100 nM | Kd (cIAP-1 BIR-3): < 100 nM | CC50 (SK-OV-3 cells): < 100 nM
